The values below come from patent US8952157B2, “Apoptosis-inducing agents for the treatment of cancer and immune and autoimmune diseases” (AbbVie Inc., priority 2008, dated 2015).

GST-Bcl-2, sequence (P10415 whole entry): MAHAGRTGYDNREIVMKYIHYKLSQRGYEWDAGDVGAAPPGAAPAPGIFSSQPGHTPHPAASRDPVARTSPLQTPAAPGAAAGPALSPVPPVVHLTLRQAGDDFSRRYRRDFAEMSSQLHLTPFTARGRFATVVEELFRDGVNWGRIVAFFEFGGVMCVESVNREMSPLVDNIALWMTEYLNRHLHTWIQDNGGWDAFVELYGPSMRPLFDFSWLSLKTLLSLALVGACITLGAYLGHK

For the test, the target named is GST-Bcl-2 (Homo sapiens (Human), UniProt P10415). Kind of test: Time Resolved-Fluorescence Resonance Energy Transfer (TR-FRET) Bcl-2 binding assay. The settings on record: GST-Bcl-2 1 nM, F-Bak peptide probe 100 nM, Tb-anti-GST antibody 1 nM; Ki by Wang's equation. The method in brief:
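Ki values derived from TR-FRET displacement of F-Bak peptide from GST-Bcl-2, detected with Tb-labelled anti-GST antibody (ex 340, em 520/495 nm). Compound dilution series started at 50 μM (2× starting concentration); room-temperature incubation 3 hours.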
The compound `CC1(C)CCC(CN2CCN(c3ccc(C(=O)NS(=O)(=O)c4ccc(NCC5CCOCC5)c([N+](=O)[O-])c4)c(Oc4ccccc4-c4cccnc4N)c3)CC2)=C(c2ccc(Cl)cc2)C1` [Example 407, 2-[2-(2-aminopyridin-3-yl)phenoxy]-4-(4-{[2-(4-chlorophenyl)-4,4-dimethylcyclohex-1-en-1-yl]methyl}piperazin-1-yl)-N-({3-nitro-4-[(tetrahydro-2H-pyran-4-ylmethyl)amino]phenyl}sulfonyl)benzamide] returned a Ki of 0.946 nM.
The compound `CC1(C)CCC(CN2CCN(c3ccc(C(=O)NS(=O)(=O)c4ccc(NCC5CN(C(CF)CF)CCO5)c([N+](=O)[O-])c4)c(Oc4cnc(N)c(Cl)c4)c3)CC2)=C(c2ccc(Cl)cc2)C1` (stereo not shown) [Example 378, 2-[(6-amino-5-chloropyridin-3-yl)oxy]-4-(4-{[2-(4-chlorophenyl)-4,4-dimethylcyclohex-1-en-1-yl]methyl}piperazin-1-yl)-N-({4-[({4-[2-fluoro-1-(fluoromethyl)ethyl]morpholin-2-yl}methyl)amino]-3-nitrophenyl}sulfonyl)benzamide] came in with a Ki of less than 0.01 nM.
`CC1(C)CCC(CN2CCN(c3ccc(C(=O)NS(=O)(=O)c4cnc(OCC5(F)CCOCC5)c(C#N)c4)c(Oc4cc5cc[nH]c5cc4F)c3)CC2)=C(c2ccc(Cl)cc2)C1` [Example 308, 4-(4-{[2-(4-chlorophenyl)-4,4-dimethylcyclohex-1-en-1-yl]methyl}piperazin-1-yl)-N-({5-cyano-6-[(4-fluorotetrahydro-2H-pyran-4-yl)methoxy]pyridin-3-yl}sulfonyl)-2-[(6-fluoro-1H-indol-5-yl)oxy]benzamide]: affinity was put at a Ki of 0.04 nM.
With `CN(C)CCOc1ccc(-c2ccc(Cl)cc2)c(CN2CCN(c3ccc(C(=O)NS(=O)(=O)c4ccc(NC5CCN(C)CC5)c([N+](=O)[O-])c4)c(Oc4cccc(Cl)c4)c3)CC2)c1` [Example 37, 4-(4-((4′-chloro-4-(2-(dimethylamino)ethoxy)-1,1′-biphenyl-2-yl)methyl)piperazin-1-yl)-2-(3-chlorophenoxy)-N-((4-((1-methylpiperidin-4-yl)amino)-3-nitrophenyl)sulfonyl)benzamide], the affinity corresponds to a Ki of 0.005 nM.
`CC1(C)CCC(CN2CCN(c3ccc(C(=O)NS(=O)(=O)c4ccc(NC5CCN(C6CCOCC6)CC5)c([N+](=O)[O-])c4)c(Oc4cccc(Cl)c4)c3)CC2)=C(c2ccc(Cl)cc2)C1` [Example 127, 2-(3-chlorophenoxy)-4-(4-{[2-(4-chlorophenyl)-4,4-dimethylcyclohex-1-en-1-yl]methyl}piperazin-1-yl)-N-({3-nitro-4-[(1-tetrahydro-2H-pyran-4-ylpiperidin-4-yl)amino]phenyl}sulfonyl)benzamide] returned a Ki of 0.03 nM.
`O=C(NS(=O)(=O)c1ccc(NCCCN2CCOCC2)c([N+](=O)[O-])c1)c1ccc(N2CCN(Cc3ccccc3-c3ccc(Cl)cc3)CC2)cc1Oc1cccc(CO)c1` [Example 9, 4-(4-((4′-chloro-1,1′-biphenyl-2-yl)methyl)piperazin-1-yl)-2-(3-(hydroxymethyl)phenoxy)-N-((4-((3-morpholin-4-ylpropyl)amino)-3-nitrophenyl)sulfonyl)benzamide] showed an inhibitory constant (Ki) of 0.754 nM. This Ki is about 25-fold higher than that of the compound before.
The compound `CC(C)N1CCC(Nc2ccc(S(=O)(=O)NC(=O)c3ccc(N4CCN(CC5=C(c6ccc(Cl)cc6)CC(C)(C)CC5)CC4)cc3Oc3cccc(Cl)c3)cc2[N+](=O)[O-])CC1` [Example 175, 2-(3-chlorophenoxy)-4-(4-{[2-(4-chlorophenyl)-4,4-dimethylcyclohex-1-en-1-yl]methyl}piperazin-1-yl)-N-({4-[(1-isopropylpiperidin-4-yl)amino]-3-nitrophenyl}sulfonyl)benzamide] returned a Ki of 0.046 nM.
Under `CN(C)CCCNc1ccc(S(=O)(=O)NC(=O)c2ccc(N3CCN(Cc4ccccc4-c4ccc(Cl)cc4)CC3)cc2Oc2ccc3[nH]cc(CCC(=O)N4CCOCC4)c3c2)cc1[N+](=O)[O-]` [Example 70, 4-(4-((4′-chloro-1,1′-biphenyl-2-yl)methyl)piperazin-1-yl)-N-((4-((3-(dimethylamino)propyl)amino)-3-nitrophenyl)sulfonyl)-2-((3-(3-morpholin-4-yl-3-oxopropyl)-1H-indol-5-yl)oxy)benzamide] stands 20.4 nM; under `CC1(C)CCC(CN2CCN(c3ccc(C(=O)NS(=O)(=O)c4ccc(NC5CCN(C6CCOCC6)CC5)c([N+](=O)[O-])c4)c(Oc4cccc(F)c4)c3)CC2)=C(c2ccc(Cl)cc2)C1` [Example 113, 4-(4-{[2-(4-chlorophenyl)-4,4-dimethylcyclohex-1-en-1-yl]methyl}piperazin-1-yl)-2-(3-fluorophenoxy)-N-({3-nitro-4-[(1-tetrahydro-2H-pyran-4-ylpiperidin-4-yl)amino]phenyl}sulfonyl)benzamide], 0.032 nM; under `CC1(C)CCC(CN2CCN(c3ccc(C(=O)NS(=O)(=O)c4ccc(NCC5CCOCC5)c([N+](=O)[O-])c4)c(Oc4cnc(N)c(Br)c4)c3)CC2)=C(c2ccc(Cl)cc2)C1` [Example 350, 2-[(6-amino-5-bromopyridin-3-yl)oxy]-4-(4-{[2-(4-chlorophenyl)-4,4-dimethylcyclohex-1-en-1-yl]methyl}piperazin-1-yl)-N-({3-nitro-4-[(tetrahydro-2H-pyran-4-ylmethyl)amino]phenyl}sulfonyl)benzamide], less than 0.01 nM.
As for `O=C(NS(=O)(=O)c1ccc(NCC2CCOCC2)cc1)c1ccc(N2CCN(Cc3ccccc3-c3ccc(Cl)cc3)CC2)cc1Oc1cccc([N+](=O)[O-])c1` [Example 77, 4-(4-((4′-chloro-1,1′-biphenyl-2-yl)methyl)piperazin-1-yl)-2-(3-nitrophenoxy)-N-((4-((tetrahydro-2H-pyran-4-ylmethyl)amino)phenyl)sulfonyl)benzamide], affinity was put at a Ki of 451 nM.
Consider `CN1CCC(Nc2ccc(S(=O)(=O)NC(=O)c3ccc(N4CCN(CC5=C(c6ccc(Cl)cc6)CC(C)(C)CC5)CC4)cc3Oc3cc(Cl)cc(Cl)c3)cc2[N+](=O)[O-])CC1` [Example 35, 4-(4-((2-(4-chlorophenyl)-4,4-dimethylcyclohex-1-en-1-yl)methyl)piperazin-1-yl)-2-(3,5-dichlorophenoxy)-N-((4-((1-methylpiperidin-4-yl)amino)-3-nitrophenyl)sulfonyl)benzamide], for which the Ki was determined as 0.022 nM.
Consider `Cc1c[nH]c2cccc(Oc3cc(N4CCN(CC5=C(c6ccc(Cl)cc6)CC(C)(C)CC5)CC4)ccc3C(=O)NS(=O)(=O)c3ccc(NC4CCN(C)CC4)c([N+](=O)[O-])c3)c12` [Example 66, 4-(4-((2-(4-chlorophenyl)-4,4-dimethylcyclohex-1-en-1-yl)methyl)piperazin-1-yl)-2-((3-methyl-1H-indol-4-yl)oxy)-N-((4-((1-methylpiperidin-4-yl)amino)-3-nitrophenyl)sulfonyl)benzamide], for which the affinity corresponds to a Ki of 0.592 nM.
Compound `Cn1ccc2c(Oc3cc(N4CCN(Cc5ccccc5-c5ccc(Cl)cc5)CC4)ccc3C(=O)NS(=O)(=O)c3ccc(NCCCN4CCOCC4)c([N+](=O)[O-])c3)cccc21` [Example 68, 4-(4-((4′-chloro-1,1′-biphenyl-2-yl)methyl)piperazin-1-yl)-2-((1-methyl-1H-indol-4-yl)oxy)-N-((4-((3-morpholin-4-ylpropyl)amino)-3-nitrophenyl)sulfonyl)benzamide] returned a Ki of 5.93 nM.
For `CCNCc1cccc(Oc2cc(N3CCN(Cc4ccccc4-c4ccc(Cl)cc4)CC3)ccc2C(=O)NS(=O)(=O)c2ccc(NCC3CCOCC3)c([N+](=O)[O-])c2)c1` [Example 81, 4-(4-((4′-chloro-1,1′-biphenyl-2-yl)methyl)piperazin-1-yl)-2-(3-((ethylamino)methyl)phenoxy)-N-((3-nitro-4-((tetrahydro-2H-pyran-4-ylmethyl)amino)phenyl)sulfonyl)benzamide], the Ki turned out to be 31 nM.
In the case of `CNc1ncc(Oc2cc(N3CCN(CC4=C(c5ccc(Cl)cc5)CC(C)(C)CC4)CC3)ccc2C(=O)NS(=O)(=O)c2ccc(NCC3CCOCC3)c([N+](=O)[O-])c2)cc1Cl` [Example 377, 2-{[5-chloro-6-(methylamino)pyridin-3-yl]oxy}-4-(4-{[2-(4-chlorophenyl)-4,4-dimethylcyclohex-1-en-1-yl]methyl}piperazin-1-yl)-N-({3-nitro-4-[(tetrahydro-2H-pyran-4-ylmethyl)amino]phenyl}sulfonyl)benzamide], affinity was put at a Ki of 2.32 nM.
Compound `CC1(C)CCC(CN2CCN(c3ccc(C(=O)NS(=O)(=O)c4ccc(NCC5CCOCC5)c([N+](=O)[O-])c4)c(Oc4cncc(NC(=O)OC(C)(C)C)c4)c3)CC2)=C(c2ccc(Cl)cc2)C1` [Example 278, tert-butyl 5-(5-(4-{[2-(4-chlorophenyl)-4,4-dimethylcyclohex-1-en-1-yl]methyl}piperazin-1-yl)-2-{[({3-nitro-4-[(tetrahydro-2H-pyran-4-ylmethyl)amino]phenyl}sulfonyl)amino]carbonyl}phenoxy)pyridin-3-ylcarbamate] registered a Ki of 40 nM.
`CN1CCC(Nc2ccc(S(=O)(=O)NC(=O)c3ccc(N4CCN(CC5=C(c6ccc(Cl)cc6)CC(C)(C)CC5)CC4)cc3Oc3cc(Cl)ccc3Cl)cc2[N+](=O)[O-])CC1` [Example 60, 4-(4-((2-(4-chlorophenyl)-4,4-dimethylcyclohex-1-en-1-yl)methyl)piperazin-1-yl)-2-(2,5-dichlorophenoxy)-N-((4-((1-methylpiperidin-4-yl)amino)-3-nitrophenyl)sulfonyl)benzamide] registered a Ki of 0.187 nM. This Ki is about 210-fold lower than that of the compound before.
For `CN1CCN(Nc2ccc(S(=O)(=O)NC(=O)c3ccc(N4CCN(CC5=C(c6ccc(Cl)cc6)CC(C)(C)CC5)CC4)cc3Oc3ccccc3Cl)cc2[N+](=O)[O-])CC1` [Example 184, 2-(2-chlorophenoxy)-4-(4-{[2-(4-chlorophenyl)-4,4-dimethylcyclohex-1-en-1-yl]methyl}piperazin-1-yl)-N-({4-[(4-methylpiperazin-1-yl)amino]-3-nitrophenyl}sulfonyl)benzamide], the inhibition constant (Ki) came to 0.155 nM. This Ki and that of the compound before are within 1.5-fold of each other.
